# Experimental data as given in patent US20240301322A1, “FUNCTIONALIZED BIODEGRADABLE SURFACTANTS AND METHODS USE” (Locus Solutions IPCo, LLC, priority 2023, published 2024).
# Columns and labels:
# [1] = Surface tension at 1000 ppm; assay type: physicochemical
# Experimental: (§1) Table 8 summarizes surface tension reduction at 1000 ppm and log reduction of P. aeruginosa at 0 and 10 min. (200 ppm) for two C12 cationic amino alcohol surfactants according to embodiments of the subject invention, LRO (R) and LKO (K), where LRO was produced through the coupling of a lauroyl chloride substrate and arginine ethyl ester and LKO was produced through the coupling of a lauroyl chloride substrate and lysine ethyl ester.
# (§2) Table 9 summarizes surface tension reduction at 1000 ppm and log reduction of S. aureus and S. enterica at 0 and 10 min. (200 ppm) for four categories of cationic amino alcohol surfactants according to embodiments of the subject invention.
# [2] = system: Staphylococcus aureus (Gram-positive); test: Microbial kill study, log reduction of Staphylococcus aureus; assay type: cell-based
# Experimental: (§3) Studies were conducted to determine the antimicrobial capabilities of cationic arginine derivatized surfactants produced according to embodiments of the subject invention.
# (§4) The test organisms were a mixture of Gram-negative and Gram-positive organisms, which served to validate the breadth of the spectrum of control and the utility of the technology for common pathogens of public health concern: Pseudomonas aeruginosa (Gram-negative), Staphylococcus aureus (Gram-positive) and Salmonella entericus (Gram-negative).
# (§5) Test bacteria were grown at 32° C. for 24-48 hours in tryptic soy broth, then plated at a starting concentration of 10^7. PBS was used for dilution to achieve the desired cell concentration.
# (§6) A stock solution of each antimicrobial treatment was created in water, which was then used to create each desired dilution for treatment: 25, 50, 200, 400, 500, 750, 1,000, 1,500, 2,000 and 4,000 ppm, in an appropriate volume of buffer. Buffers included 100 mM of citric acid, ammonium HCL, PBS or sodium bicarbonate.
# (§7) The created cell dilution of 10^7 CFU/mL was mixed with either 100 uL to 900 uL of antimicrobial at the appropriate PPM, or 1-9 mL of antimicrobial at the appropriate PPM. The final concentration of the organism was […] once mixed with the antimicrobial.
# (§8) The moment the organism was added to the antimicrobial, the timer was started for the desired time period (0, 2, 5, 6 or 10 min). At the end of the timer, the antimicrobial was neutralized, and dilutions were then plated onto TSA plates and incubated for 24-48 hours at 32° C.
# (§9) The negative control comprised 0.1 mL from the organism stock plated onto a TSA plate. For the positive control a serial dilution was set up with a starting concentration of 400 PPM quaternary ammonium compound (QAC) and organism. Dilutions were plated at 102, 103 and 104 CFU/mL.
# (§10) After 24 to 48 hours of incubation, plates were removed from the incubator and colony numbers were counted.
# (§11) The below scale is commonly used in determining a compound's efficacy, where a greater than or equal to 6-fold logarithmic (≥6 log) reduction in less than 10 minutes is needed for disinfection.
# as §2
# (§12) The surfactants were produced through the coupling of octanoyl chloride (C8); decanoyl chloride (C10); lauroyl chloride (C12); myristyroyl chloride (C14); palmitoyl chloride (C16); or a linear sophorolipid (SLP), with: arginine ethyl ester (R), histidine ethyl ester (H) or lysine ethyl ester (K).
# [3] = system: Salmonella enterica (Gram-negative); test: Microbial kill study, log reduction of Salmonella enterica; assay type: cell-based
# Experimental: as §3, §4, §5, §6, §7, §8, §9, §10, §11, §2, §12
# [4] = system: Pseudomonas aeruginosa (Gram-negative); test: Microbial kill study, log reduction of Pseudomonas aeruginosa; assay type: cell-based
# Experimental: as §3, §4, §5, §6, §7, §8, §9, §10, §11, §1
# [5] = system: Staphylococcus aureus (G+); test: Stability study at pH 7 over 4 days, log reduction of S. aureus; assay type: cell-based; conditions: pH 7, 100 ppm; for Activity Reduction S. aureus (G+) 100 ppm 5 min: loss of log reduction Day 0 to Day 4
# Experimental: FIGS. 3A-3B depict a comparison of pH stability between lauryl arginine ethyl ester (LRE) and a cationic amino alcohol surfactant according to an embodiment of the subject invention (LRO) in different conditions of incubation at pH 7 (A) and pH 10 (B). Oven=45° C., 50% relative humidity; ambient=room temperature.
# as §3, §4, §5, §6, §7, §8, §9, §10, §11
# Tables 10-11 summarize the pH stability over 4 days for a C12 cationic amino alcohol surfactant according to embodiments of the subject invention, LRO (RO), compared with LAE (RE), where LRO was produced through the coupling of a lauroyl chloride substrate and arginine ethyl ester. Log reductions were measured according to the procedures described above in Example 7.
# Salmonella enterica (G-) = test: Stability study at pH 7 over 4 days, log reduction of S. enterica; assay type: cell-based; conditions: pH 7, 100 ppm; for Activity Reduction S. enterica (G-) 100 ppm 5 min: loss of log reduction Day 0 to Day 4
Molecule,Surface Tension 1000 ppm ([1]; Table 9) [mN/m],"Log Reduction S. aureus (G+) 200 ppm, 0 min [2]","Log Reduction S. aureus (G+) 200 ppm, 10 min [2]","Log Reduction S. enterica (G-) 200 ppm, 0 min [3]","Log Reduction S. enterica (G-) 200 ppm, 10 min [3]",other results
CCCCCCCC(=O)NC(CO)Cc1c[nH]cn1 (centres unmarked) [C8 H O],57.78,0.00,0.00,0.00,0.00,–
CCCCCCCCCCCC(=O)NC(CO)CCCCN (centres unmarked) [C12 K O],27.82,0.00,4.60,0.00,6.16,"Surface Tension 1000 ppm ([1]; Table 8): 27.82 mN/m; Log Reduction 200 ppm, 0 min (Pseudomonas aeruginosa) [4]: 0.54; Log Reduction 200 ppm, 10 min (Pseudomonas aeruginosa) [4]: 6.25"
linear sophorolipid argininol amide [SLP R O],41.89,0.00,2.23,0.00,0.00,–
CCCCCCCCCC(=O)NC(CO)CCCNC(=N)N (centres unmarked) [C10 R O],28.30,0.00,6.30,0.00,6.30,–
"CCCCCCCCCCCC(=O)NC(CO)CCCNC(=N)N (centres unmarked) [C12 R O, lauryl argininol alcohol]",23.75,0.00,6.24,0.00,6.20,"Log Reduction S. aureus (G+) 100 ppm, 0 min ([5]; Day 0 Stability): 0.00; Log Reduction S. aureus (G+) 100 ppm, 2 min ([5]; Day 0 Stability): 2.17; Log Reduction S. aureus (G+) 100 ppm, 5 min ([5]; Day 0 Stability): 6.53; Log Reduction S. aureus (G+) 100 ppm, 0 min ([5]; Day 4 Accelerated Stability): 0.00; Log Reduction S. aureus (G+) 100 ppm, 2 min ([5]; Day 4 Accelerated Stability): 0.76; Log Reduction S. aureus (G+) 100 ppm, 5 min ([5]; Day 4 Accelerated Stability): 6.53; Activity Reduction S. aureus (G+) 100 ppm 5 min [5]: 0.00%; Log Reduction S. enterica (G-) 100 ppm, 0 min (Salmonella enterica (G-); Day 0 Stability): 0.00; Log Reduction S. enterica (G-) 100 ppm, 2 min (Salmonella enterica (G-); Day 0 Stability): 1.32; Log Reduction S. enterica (G-) 100 ppm, 5 min (Salmonella enterica (G-); Day 0 Stability): 2.36; Log Reduction S. enterica (G-) 100 ppm, 0 min (Salmonella enterica (G-); Day 4 Accelerated Stability): 0.00; Log Reduction S. enterica (G-) 100 ppm, 2 min (Salmonella enterica (G-); Day 4 Accelerated Stability): 0.00; Log Reduction S. enterica (G-) 100 ppm, 5 min (Salmonella enterica (G-); Day 4 Accelerated Stability): 0.79; Activity Reduction S. enterica (G-) 100 ppm 5 min (Salmonella enterica (G-)): 66.53%; Surface Tension 1000 ppm ([1]; Table 8): 23.75 mN/m; Log Reduction 200 ppm, 0 min (Pseudomonas aeruginosa) [4]: 1.85; Log Reduction 200 ppm, 10 min (Pseudomonas aeruginosa) [4]: 6.25"
CCCCCCCCCCCCCC(=O)NC(CO)Cc1c[nH]cn1 (centres unmarked) [C14 H O],22.77,0.00,0.00,0.00,0.00,–
CCCCCCCCCC(=O)NC(CO)Cc1c[nH]cn1 (centres unmarked) [C10 H O],50.30,0.00,0.00,0.00,0.00,–
CCCCCCCCCCCCCCCC(=O)NC(CO)CCCNC(=N)N (centres unmarked) [C16 R O],37.63,0.00,4.10,0.00,2.86,–
CCCCCCCCCCCC(=O)NC(CO)Cc1c[nH]cn1 (centres unmarked) [C12 H O],27.36,0.00,0.00,0.00,0.00,–
CCCCCCCC(=O)NC(CO)CCCNC(=N)N (centres unmarked) [C8 R O],32.15,0.00,0.87,0.00,0.00,–
CCCCCCCCCCCCCC(=O)NC(CO)CCCNC(=N)N (centres unmarked) [C14 R O],39.54,0.00,6.36,0.00,6.11,–
"CCCCCCCCCCCC(=O)N[C@@H](CCCNC(=N)N)C(=O)OCC [C12 R E, lauroyl arginine ethyl ester, reference compound]",–,–,–,–,–,"Log Reduction S. aureus (G+) 100 ppm, 0 min ([5]; Day 0 Stability): 0.00; Log Reduction S. aureus (G+) 100 ppm, 2 min ([5]; Day 0 Stability): 6.53; Log Reduction S. aureus (G+) 100 ppm, 5 min ([5]; Day 0 Stability): 6.53; Log Reduction S. aureus (G+) 100 ppm, 0 min ([5]; Day 4 Accelerated Stability): 0.00; Log Reduction S. aureus (G+) 100 ppm, 2 min ([5]; Day 4 Accelerated Stability): 0.93; Log Reduction S. aureus (G+) 100 ppm, 5 min ([5]; Day 4 Accelerated Stability): 1.14; Activity Reduction S. aureus (G+) 100 ppm 5 min [5]: 82.54%; Log Reduction S. enterica (G-) 100 ppm, 0 min (Salmonella enterica (G-); Day 0 Stability): 0.00; Log Reduction S. enterica (G-) 100 ppm, 2 min (Salmonella enterica (G-); Day 0 Stability): 6.42; Log Reduction S. enterica (G-) 100 ppm, 5 min (Salmonella enterica (G-); Day 0 Stability): 6.42; Log Reduction S. enterica (G-) 100 ppm, 0 min (Salmonella enterica (G-); Day 4 Accelerated Stability): 0.00; Log Reduction S. enterica (G-) 100 ppm, 2 min (Salmonella enterica (G-); Day 4 Accelerated Stability): 0.00; Log Reduction S. enterica (G-) 100 ppm, 5 min (Salmonella enterica (G-); Day 4 Accelerated Stability): 0.00; Activity Reduction S. enterica (G-) 100 ppm 5 min (Salmonella enterica (G-)): 100.00%"
